Literature values, collected in article PMC10973013, “Translational Potential of a Contrast Agent for FGS Applications in pNETs” (Molecular Imaging and Biology, 2024).

Tested on: lesions in ovarian cancer patients
Details: cytoreductive surgery, randomized phase 3
Source text: The critical need for accurate tumor detection during oncologic surgery has led to the development of fluorescent contrast agents that target cancerous tissues. This technique, known as fluorescence-guided surgery (FGS), typically involves systemic administration of a fluorescent compound that contains a tumor-targeting moiety and is imaged in the near-infrared spectral range in order to maximize image contrast and diagnostic accuracy. In 2021, the folic acid analog OTL-38 (CYTALUX®) became the first clinically approved FGS agent to target tumors via an active, receptor-mediated process. ...

## CC1(C)C(/C=C/C2=C(Oc3ccc(C[C@H](NC(=O)c4ccc(NCc5cnc6nc(N)[nH]c(=O)c6n5)cc4)C(=O)[O-])cc3)C(=C/C=C3\N(CCCCS(=O)(=O)[O-])c4ccc(S(=O)(=O)[O-])cc4C3(C)C)/CCC2)=[N+](CCCCS(=O)(=O)[O-])c2ccc(S(=O)(=O)[O-])cc21.[H+].[H+].[H+].[H+] [OTL-38]
  identification of lesions with FGS versus standard-of-care methods: more effectively identified with FGS than with standard-of-care methods
